This is an account of results in patent US11944622B2 (Annapurna Bio, Inc., priority 2018, dated 2024).

This test addresses T1, APJ Receptor (Homo sapiens, UniProt P35414).
T1 sequence (P35414 1-380): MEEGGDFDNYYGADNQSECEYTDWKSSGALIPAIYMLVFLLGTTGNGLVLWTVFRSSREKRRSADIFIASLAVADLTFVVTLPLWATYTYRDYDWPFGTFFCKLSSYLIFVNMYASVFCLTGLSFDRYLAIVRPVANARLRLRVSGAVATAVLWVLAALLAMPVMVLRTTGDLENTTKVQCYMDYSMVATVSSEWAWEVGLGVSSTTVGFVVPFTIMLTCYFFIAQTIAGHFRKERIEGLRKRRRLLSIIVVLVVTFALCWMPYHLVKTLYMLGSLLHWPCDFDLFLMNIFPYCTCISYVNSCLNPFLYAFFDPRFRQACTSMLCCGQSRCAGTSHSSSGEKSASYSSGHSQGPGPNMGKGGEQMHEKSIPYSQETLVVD
Description: APJ cAMP assay (DiscoverX enzyme fragment complementation; inhibition of forskolin-stimulated cAMP). In kind it is cell-based. The conditions noted are these: CHO-K1 cell line stably expressing the APJ Receptor; EC80 forskolin; 30 minutes at 37° C.; read-out: Potency Range (APJ cAMP EC50). An excerpt:
Activation of APJ receptor is known to inhibit forskolin-stimulated cyclic AMP (cAMP) production in cells in a pertussis toxin-sensitive manner which indicates primary coupling to the GαI subunit of the G protein heterotrimeric complex. In addition to signaling through G protein and inhibition of cAMP, APJ receptor activation also results in β-arrestin recruitment, receptor internalization and activation of extracellular-regulated kinases (ERKs).
In order to optimize functional activity directed toward Gi coupling we utilized a CHO-K 1 cell line developed by DiscoverX stably expressing the APJ Receptor. Cells expressing APJR receptor were plated in a 384-well microtiter plates and incubated overnight at 37° C. with 5% CO2 to allow the cells to attach and grow. Media was then aspirated from the cells and replaced with 15 uL 2:1 Hanks Balanced Salt Solution (HBSS)/10 mM Hepes:cAMP XS+Ab reagent. Five microliters (5 uL) of previously generated compound sample stocks at 4× final concentration in assay buffer containing 4× EC80 forskolin were then added to the cells and allowed to incubate at 37° C. for 30 minutes.
After incubation the assay signal was generated using a technology termed enzyme fragment complementation (EFC). In EFC the enzyme B-galactosidase is split into two complementary portions (EA and ED). The fragment ED is fused to cAMP and in the assay format competes with endogenous cAMP for binding to a cAMP specific antibody. Activated B-Gal is formed when exogenous EA fragment binds to free ED-cAMP (not bound to cAMP specific antibody). Activated enzyme levels are detected through conversion of B-gal chemiluminescent substrate which generates a detectable luminescence signal and read on standard microtiter plate.
The methodology for detection of cAMP using EFC requires incubation with 20 uL of cAMP XS+ED/CL lysis cocktail for one hour followed by incubation with 20 uL cAMP XS+EA reagent for three hours at room temperature. Microplates were read following signal generation with a PerkinElmer Envision instrument utilizing chemiluminescent signal detection.
Compound activity was analyzed using CBIS data analysis suite (ChemInnovation, CA). Percentage activity was calculated using the following formula: % Activity=100%×(1−(mean RLU of test sample−mean RLU of Max control)/(mean RLU of vehicle control−mean RLU of Max control))
On the technique in general: Cyclic AMP is a second messenger, typically raised through Gs and lowered through Gi signalling.
As for `CCOc1cccc(-c2cc3ncc(NS(C)(=O)=O)nc3n2-c2c(OC)cccc2OC)n1` [Example 19, N-(5-(2,6-dimethoxyphenyl)-6-(6-ethoxypyridin-2-yl)-5H-pyrrolo[2,3-b]pyrazin-3-yl)methanesulfonamide], the EC50 lay in the range of 100 to 10000 nM.

Take `CCOc1cccc(-c2nc3ncc(NS(C)(=O)=O)nc3n2-c2c(OC)ccnc2OC)n1` (atropisomer, axis not shown) [Example 85, N-(1-(2,4-Dimethoxypyridin-3-yl)-2-(6-ethoxypyridin-2-yl)-1H-imidazo[4,5-b]pyrazin-6-yl)methanesulfonamide]: the EC50 is 100 to 10000 nM.

`CCOc1cccc(-c2nc3nc(Cl)c(NS(=O)(=O)c4cccnc4)nc3n2-c2c(OC)cccc2OC)n1` [Example 104, N-(5-Chloro-1-(2,6-dimethoxyphenyl)-2-(6-ethoxypyridin-2-yl)-1H-imidazo[4,5-b]pyrazin-6-yl)pyridine-3-sulfonamide]: the EC50 was in the range of 1 to 100 nM.

On to `CCOc1cccc(-c2nc3ncc(NS(C)(=O)=O)cc3n2-c2c(OC)cccc2OC)n1` [Example 20, N-(1-(2,6-dimethoxyphenyl)-2-(6-ethoxypyridin-2-yl)-1H-imidazo[4,5-b]pyridin-6-yl)methanesulfonamide], for which the EC50 was in the range of 1 to 100 nM.

Regarding `CCOc1cccc(-c2nc3nc(NS(=O)(=O)Cc4ncc(C)cn4)cnc3n2-c2c(OC)cccc2OC)n1` [Example 91, N-(1-(2,6-Dimethoxyphenyl)-2-(6-ethoxypyridin-2-yl)-1H-imidazo[4,5-b]pyrazin-5-yl)-1-(5-methylpyrimidin-2-yl)methanesulfonamide], the EC50 is less than 1 nM.

As to `CCOc1cccc(-c2nc3ncc(O)nc3n2-c2c(OC)cccc2C(F)(F)F)n1` [Example 47, 2-(6-ethoxypyridin-2-yl)-1-(2-methoxy-6-(trifluoromethyl)phenyl)-1H-imidazo[4,5-b]pyrazin-6-ol], the EC50 fell in the range of 100 to 10000 nM.

Turning to `CCOc1cccc(-c2nc3ncc(NS(=O)(=O)Cc4cnccn4)nc3n2-c2c(OC)cccc2OC)n1` [Example 69, N-(1-(2,6-dimethoxyphenyl)-2-(6-ethoxypyridin-2-yl)-1H-imidazo[4,5-b]pyrazin-6-yl)-1-(pyrazin-2-yl)methanesulfonamide], the EC50 lay within 1 to 100 nM.

Regarding `CCOc1cccc(-c2nc3ncc(NS(=O)(=O)Cc4ccccc4)nc3n2-c2c(OC)cccc2OC)n1` [Example 3, N-(1-(2,6-dimethoxyphenyl)-2-(6-ethoxypyridin-2-yl)-1H-imidazo[4,5-b]pyrazin-6-yl)-1-phenylmethanesulfonamide], the EC50 lay in the range of 1 to 100 nM.

Turning to `CCOc1cccc(-c2nc3ncc(NS(=O)(=O)Cc4cccnc4)nc3n2-c2c(OC)cccc2OC)n1` [Example 26, N-(1-(2,6-dimethoxyphenyl)-2-(6-ethoxypyridin-2-yl)-1H-imidazo[4,5-b]pyrazin-6-yl)-1-(pyridin-3-yl)methanesulfonamide], the EC50 fell in the range of 1 to 100 nM.

With `CCOc1cccc(-c2nc3nc(N)cnc3n2-c2c(OC)cccc2OC)n1` [Example 16, 1-(2,6-dimethoxyphenyl)-2-(6-ethoxypyridin-2-yl)-1H-imidazo[4,5-b]pyrazin-5-amine], the EC50 lay in the range of 1 to 100 nM.

Take `CCOc1cccc(-c2nc3ncc(NS(=O)(=O)[C@H]4CC[C@H](O)CC4)nc3n2-c2c(OC)cccc2OC)n1` [Example 39, trans-N-(1-(2,6-dimethoxyphenyl)-2-(6-ethoxypyridin-2-yl)-1H-imidazo[4,5-b]pyrazin-6-yl)-4-hydroxycyclohexane-1-sulfonamide]: the EC50 was less than 1 nM.

Turning to `CCOc1cccc(-c2nc3nc(Cl)c(NS(C)(=O)=O)nc3n2-c2c(OC)cccc2OC)n1` [Example 64, N-(5-chloro-1-(2,6-dimethoxyphenyl)-2-(6-ethoxypyridin-2-yl)-1H-imidazo[4,5-b]pyrazin-6-yl)methanesulfonamide], the EC50 lay in the range of 1 to 100 nM.

For `CCOc1cccc(-c2nc3nc(NCc4ccc(OC)cc4)cnc3n2-c2c(OC)cccc2OC)n1` [Example 46, 1-(2,6-dimethoxyphenyl)-2-(6-ethoxypyridin-2-yl)-N-(4-methoxybenzyl)-1H-imidazo[4,5-b]pyrazin-5-amine], the EC50 is less than 1 nM.

As for `CCOc1cccc(-c2nc3nc(CC4CCC4)c(NS(C)(=O)=O)nc3n2-c2c(OC)cccc2OC)n1` [Example 88], the EC50 is less than 1 nM.

As for `CCOc1cccc(-c2nc3ncc(NS(=O)(=O)c4ccncc4)nc3n2-c2c(OC)cccc2OC)n1` [Example 25, N-(1-(2,6-dimethoxyphenyl)-2-(6-ethoxypyridin-2-yl)-1H-imidazo[4,5-b]pyrazin-6-yl)pyridine-4-sulfonamide], the EC50 lay in the range of 1 to 100 nM.

With `CCOc1cccc(-c2nc3ncc(N)nc3n2-c2c(OC)cccc2OC)n1` [Example 10, 1-(2,6-dimethoxyphenyl)-2-(6-ethoxypyridin-2-yl)-1H-imidazo[4,5-b]pyrazin-6-amine], the EC50 lay within 1 to 100 nM.

In the case of `CC#CCS(=O)(=O)Nc1cnc2nc(-c3cccc(OCC)n3)n(-c3c(OC)cccc3OC)c2n1` [Example 82, N-(1-(2,6-Dimethoxyphenyl)-2-(6-ethoxypyridin-2-yl)-1H-imidazo[4,5-b]pyrazin-6-yl)but-2-yne-1-sulfonamide], the EC50 lay within 1 to 100 nM.

In the case of `CCOc1cccc(-c2nc3nc(NS(C)(=O)=O)c(Cl)nc3n2-c2c(OC)cccc2OC)n1` [Example 138, N-(6-Chloro-1-(2,6-dimethoxyphenyl)-2-(6-ethoxypyridin-2-yl)-1H-imidazo[4,5-b]pyrazin-5-yl)methanesulfonamide], the EC50 fell in the range of 1 to 100 nM.

Consider `CCOc1cccc(-c2nc3ncc(NS(=O)(=O)Cc4ncccn4)nc3n2-c2c(OC)cccc2OC)n1` [Example 28, N-(1-(2,6-dimethoxyphenyl)-2-(6-ethoxypyridin-2-yl)-1H-imidazo[4,5-b]pyrazin-6-yl)-1-(pyrimidin-2-yl)methanesulfonamide], for which the EC50 was less than 1 nM.

Take `CCOc1cccc(-c2nc3ncc(Br)nc3n2-c2c(OC)cccc2OC)n1` [Example 1, 6-bromo-1-(2,6-dimethoxyphenyl)-2-(6-ethoxypyridin-2-yl)-1H-imidazo[4,5-b]pyrazine]: the EC50 lay within 100 to 10000 nM.

In the case of `COc1cccc(OC)c1-n1c(-c2cccc(OC3CC3)n2)nc2ncc(NS(C)(=O)=O)nc21` [Example 54, N-(2-(6-cyclopropoxypyridin-2-yl)-1-(2,6-dimethoxyphenyl)-1H-imidazo[4,5-b]pyrazin-6-yl)methanesulfonamide], the EC50 lay within 1 to 100 nM.

Regarding `CCOc1cccc(-c2nc3ncc(NS(=O)(=O)Cc4ccccn4)nc3n2-c2c(OC)cccc2OC)n1` [Example 27, N-(1-(2,6-dimethoxyphenyl)-2-(6-ethoxypyridin-2-yl)-1H-imidazo[4,5-b]pyrazin-6-yl)-1-(pyridin-2-yl)methanesulfonamide], the EC50 lay in the range of 1 to 100 nM.

As to `CCOc1cccc(-c2nc3nnc(NS(C)(=O)=O)cc3n2-c2c(OC)cccc2OC)n1` [Example 21, N-(5-(2,6-dimethoxyphenyl)-6-(6-ethoxypyridin-2-yl)-5H-imidazo[4,5-c]pyridazin-3-yl)methanesulfonamide], the EC50 fell in the range of 1 to 100 nM.

Regarding `CCOc1cccc(-c2nc3ncc(NS(=O)(=O)CCC4CC4)nc3n2-c2c(OC)cccc2OC)n1` [Example 29, 2-cyclopropyl-N-(1-(2,6-dimethoxyphenyl)-2-(6-ethoxypyridin-2-yl)-1H-imidazo[4,5-b]pyrazin-6-yl)ethanesulfonamide], the EC50 was less than 1 nM.

Turning to `CCOc1cccc(-c2nc3nc(Cl)c(NS(=O)(=O)Cc4cccc(F)c4)nc3n2-c2c(OC)cccc2OC)n1` [Example 143, N-(5-Chloro-1-(2,6-dimethoxyphenyl)-2-(6-ethoxypyridin-2-yl)-1H-imidazo[4,5-b]pyrazin-6-yl)-1-(3-fluorophenyl)methanesulfonamide], the EC50 fell in the range of 1 to 100 nM.

As for `CCOc1cccc(-c2nc3nc(NC(=O)Cc4ccccc4)cnc3n2-c2c(OC)cccc2OC)n1` [Example 17, N-(1-(2,6-dimethoxyphenyl)-2-(6-ethoxypyridin-2-yl)-1H-imidazo[4,5-b]pyrazin-5-yl)-2-phenylacetamide], the half-maximal effective concentration (EC50) lay within 1 to 100 nM.

As a reminder, the EC50 is the concentration giving half of the maximal effect.
